Tested on: not given
Test: not given
Settings: not given

Row | melting point | SMILES
1 | 198 to 199.4 °C | CNCC1COc2ccc(S(=O)(=O)c3ccccc3)cc2O1 (racemic) [Compound 1, (+−)-(7-Benzenesulfonyl-2,3-dihydro-benzo[1,4]dioxin-2-ylmethyl)-methyl-amine]
2 | 215.4 to 217.2 °C | O=S(=O)(c1cccc(F)c1)c1ccc2c(c1)O[C@H](CN1CC1)CO2 (stereo in doubt)
3 | 203.9 to 206.6 °C | O=S(=O)(c1ccccc1)c1ccc2c(c1)O[C@@H](CN1CC1)CO2 (stereo in doubt)
4 | 195.1 to 197.1 °C | O=S(=O)(c1cccc(F)c1)c1ccc2c(c1)O[C@@H](CNCc1ccccc1)CO2 (stereo in doubt) [Compound 11, Benzyl-[7-(3-fluoro-benzenesulfonyl)-2,3-dihydro-benzo[1,4]dioxin-2-ylmethyl]-amine]
5 | 213 to 214.1 °C | CNC[C@H]1COc2ccc(S(=O)(=O)c3ccc(C)cc3)cc2O1 (stereo in doubt) [Compound 12, Methyl-[7-(toluene-4-sulfonyl)-2,3-dihydro-benzo[1,4]dioxin-2-ylmethyl]-amine]
6 | 247.5 to 251.3 °C | CCNC[C@@H]1COc2ccc(S(=O)(=O)c3cccc(F)c3)cc2O1 (stereo in doubt) [Compound 13, Ethyl-[7-(3-fluoro-benzenesulfonyl)-2,3-dihydro-benzo[1,4]dioxin-2-ylmethyl]-amine]
7 | 228.7 to 231.3 °C | CN(C)C[C@@H]1COc2ccc(S(=O)(=O)c3cccc(F)c3)cc2O1 (stereo in doubt) [Compound 14, [7-(3-Fluoro-benzenesulfonyl)-2,3-dihydro-benzo[1,4]dioxin-2-ylmethyl]-dimethyl-amine]
8 | 242.4 to 243.8 °C | CC(C)NC[C@@H]1COc2ccc(S(=O)(=O)c3cccc(F)c3)cc2O1 (stereo in doubt) [Compound 15, [7-(3-Fluoro-benzenesulfonyl)-2,3-dihydro-benzo[1,4]dioxin-2-ylmethyl]-isopropyl-amine]
9 | 100.8 to 108.3 °C | O=S(=O)(c1cccc(F)c1)c1ccc2c(c1)O[C@H](CN1CCC1)CO2 (stereo in doubt) [Compound 16, 1-[7-(3-Fluoro-benzenesulfonyl)-2,3-dihydro-benzo[1,4]dioxin-2-ylmethyl]-azetidine]
10 | 193 to 196.9 °C | COCCNC[C@@H]1COc2ccc(S(=O)(=O)c3cccc(F)c3)cc2O1 (stereo in doubt) [Compound 17, [7-(3-Fluoro-benzenesulfonyl)-2,3-dihydro-benzo[1,4]dioxin-2-ylmethyl]-(2-methoxy-ethyl)-amine]
11 | 220.9 to 224.9 °C | O=S(=O)(c1ccccc1)c1ccc2c(c1)O[C@@H](CNCc1ccccc1)CO2 (stereo in doubt) [Compound 21, (7-Benzenesulfonyl-2,3-dihydro-benzo[1,4]dioxin-2-ylmethyl)-benzyl-amine]
12 | 232 to 233.5 °C | CN(C)C[C@H]1COc2ccc(S(=O)(=O)c3ccccc3)cc2O1 (stereo in doubt) [Compound 23, (7-Benzenesulfonyl-2,3-dihydro-benzo[1,4]dioxin-2-ylmethyl)-dimethyl-amine]
13 | 224.9 to 228.8 °C | CC(C)NC[C@H]1COc2ccc(S(=O)(=O)c3ccccc3)cc2O1 (stereo in doubt) [Compound 24, (7-Benzenesulfonyl-2,3-dihydro-benzo[1,4]dioxin-2-ylmethyl)-isopropyl-amine]
14 | 169.3 to 171.9 °C | COCCNC[C@H]1COc2ccc(S(=O)(=O)c3ccccc3)cc2O1 (stereo in doubt) [Compound 26, (7-Benzenesulfonyl-2,3-dihydro-benzo[1,4]dioxin-2-ylmethyl)-(2-methoxy-ethyl)-amine]
15 | 242.2 to 246.7 °C | CCNC[C@H]1COc2ccc(S(=O)(=O)c3ccccc3)cc2O1 (stereo in doubt) [Compound 27, (7-Benzenesulfonyl-2,3-dihydro-benzo[1,4]dioxin-2-ylmethyl)-ethyl-amine]
16 | 99.9 to 106.1 °C | CNC[C@@H]1COc2ccc(S(=O)(=O)c3cccc(C)c3)cc2O1 (stereo in doubt) [Compound 28, Methyl-[7-(toluene-3-sulfonyl)-2,3-dihydro-benzo[1,4]dioxin-2-ylmethyl]-amine]
17 | 169 to 170.8 °C | CNC[C@@H]1COc2ccc(S(=O)(=O)c3ccccc3C)cc2O1 (stereo in doubt) [Compound 29, Methyl-[7-(toluene-2-sulfonyl)-2,3-dihydro-benzo[1,4]dioxin-2-ylmethyl]-amine]
18 | 279.2 to 279.4 °C | O=S(=O)(c1ccccc1)c1ccc2c(c1)O[C@@H](CN1CCNCC1)CO2 (stereo in doubt) [Compound 30, 1-(7-Benzenesulfonyl-2,3-dihydro-benzo[1,4]dioxin-2-ylmethyl)-piperazine]
19 | 126.5 to 128.3 °C | N=C(N)NC[C@H]1COc2ccc(S(=O)(=O)c3ccccc3)cc2O1 (stereo in doubt) [Compound 31, N-(7-Benzenesulfonyl-2,3-dihydro-benzo[1,4]dioxin-2-ylmethyl)-guanidine]
20 | 199.2 to 200.8 °C | CN(O)C[C@H]1COc2ccc(S(=O)(=O)c3ccccc3)cc2O1 (stereo in doubt) [Compound 33, N-(7-Benzenesulfonyl-2,3-dihydro-benzo[1,4]dioxin-2-ylmethyl)-N-methylhydroxylamine]
21 | 88 to 90 °C | O=S(=O)(c1ccccc1)c1ccc2c(c1)O[C@@H](Cn1ccnc1)CO2 (stereo in doubt) [Compound 34, 1-(7-Benzenesulfonyl-2,3-dihydro-benzo[1,4]dioxin-2-ylmethyl)-1H-imidazole]
22 | 94.7 to 96.4 °C | O=S(=O)(c1ccccc1)c1ccc2c(c1)O[C@@H](CN1CCC(O)C1)CO2 (stereo in doubt) [Compound 37, 1-(7-Benzenesulfonyl-2,3-dihydro-benzo[1,4]dioxin-2-ylmethyl)-pyrrolidin-3-ol]
23 | 190.6 to 192.1 °C | CNC[C@H]1COc2ccc(S(=O)(=O)c3cccc(C#N)c3)cc2O1 (stereo in doubt) [Compound 38, 3-(3-Methylaminomethyl-2,3-dihydro-benzo[1,4]dioxine-6-sulfonyl)-benzonitrile]
24 | 104.9 to 105.7 °C | NC(=O)NC[C@H]1COc2ccc(S(=O)(=O)c3ccccc3)cc2O1 (stereo in doubt) [Compound 40, (7-Benzenesulfonyl-2,3-dihydro-benzo[1,4]dioxin-2-ylmethyl)-urea]
25 | 240 to 243.6 °C | CNC[C@H]1COc2ccc(S(=O)(=O)c3ccccc3)cc2O1 [Compound 2, (7-Benzenesulfonyl-2,3-dihydro-benzo[1,4]dioxin-2--(S)-ylmethyl)-methyl-amine]
26 | 219.7 to 225.4 °C | CNC[C@@H]1COc2cc(S(=O)(=O)c3ccccc3)ccc2O1 [Compound 4, (6-Benzenesulfonyl-2,3-dihydro-benzo[1,4]dioxin-2-(R)-ylmethyl)-methyl-amine]
27 | 218.2 to 220.5 °C | CNC[C@H]1COc2cc(S(=O)(=O)c3ccccc3)ccc2O1 [Compound 5, (6-Benzenesulfonyl-2,3-dihydro-benzo[1,4]dioxin-2-(S)-ylmethyl)-methyl-amine]
28 | 250.1 to 254.3 °C | CNC[C@@H]1COc2ccc(S(=O)(=O)c3cccc(F)c3)cc2O1 [Compound 8, [7-(3-Fluoro-benzenesulfonyl)-2,3-dihydro-benzo[1,4]dioxin-2-(R)-ylmethyl]-methyl-amine]
29 | 224.9 to 227.9 °C | NC[C@H]1COc2ccc(S(=O)(=O)c3cccc(F)c3)cc2O1 [Compound 9, C-[7-(3-Fluoro-benzenesulfonyl)-2,3-dihydro-benzo[1,4]dioxin-2-(S)-yl]-methylamine]
30 | 75.8 to 112.7 °C | O=S(=O)(c1ccccc1)c1ccc2c(c1)O[C@H](CN1CCCC1)CO2 [Compound 10, 1-(7-Benzenesulfonyl-2,3-dihydro-benzol[1,4]dioxin-2-(R)-ylmethyl)-pyrrolidine]

Biological target: T1, recombinant human 5-HT6 receptor (Homo sapiens, UniProt P50406)
T1 construct: expressed in transfected cells
Test: Radioligand binding, [3H]LSD competition in HEK293 cell membranes
Settings: [3H]LSD displacement, 37° C., pH 7.4, read-out: pKi for the 5-HT6 receptor (converted)
Procedure: The binding activity of compounds of this invention in vitro was determined as follows. Duplicate determinations of 5-HT6 ligand affinity were made by competing for binding of [^3H]LSD in cell membranes derived from HEK293 cells stably expressing recombinant human 5-HT6 receptor. Duplicate determinations of 5-HT2A ligand affinity were made by competing for binding of [^3H]Ketanserin (3-(2-(4-(4-fluorobenzoyl)piperidinol)ethyl)-2,4(1H,3H)-quinazolinedione) in cell membranes derived from CHO—K1 cells stably expressing recombinant human 5-HT2A receptor. Membranes were prepared from HEK 293 cell lines by the method described by Monsma et al., Molecular Pharmacology, Vol. 43 pp. 320-327 (1993), and from CHO—K1 cell lines as described by Bonhaus et al., Br J Pharmacol. June;1 15(4):622-8 (1995).
For estimation of affinity at the 5-HT6 receptor, all determinations were made in assay buffer containing 50 mM Tris-HCl, 10 mM MgSO4, 0.5 mM EDTA, 1 mM ascorbic acid, pH 7.4 at 37° C., in a 250 microliter reaction volume. […]
Assay tubes containing [^3H] […] LSD or [^3H]Ketanserin were determined as radioactive counts per minute using Packard TopCount.
Displacement of [^3H]LSD or [^3H]Ketanserin from the binding sites was quantified by fitting concentration-binding data to a 4-parameter logistic equation: […]

T1 sequence (P50406 whole entry): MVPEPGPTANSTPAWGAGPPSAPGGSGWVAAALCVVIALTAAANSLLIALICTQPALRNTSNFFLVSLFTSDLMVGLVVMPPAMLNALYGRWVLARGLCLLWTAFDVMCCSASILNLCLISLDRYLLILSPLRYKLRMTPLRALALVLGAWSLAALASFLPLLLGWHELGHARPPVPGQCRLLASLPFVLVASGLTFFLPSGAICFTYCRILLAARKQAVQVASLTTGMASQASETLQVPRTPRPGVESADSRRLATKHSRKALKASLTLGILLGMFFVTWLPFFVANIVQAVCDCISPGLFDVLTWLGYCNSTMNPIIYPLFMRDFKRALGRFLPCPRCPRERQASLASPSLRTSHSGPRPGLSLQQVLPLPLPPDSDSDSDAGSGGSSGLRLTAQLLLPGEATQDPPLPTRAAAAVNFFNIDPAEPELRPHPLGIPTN

Row | Ki | SMILES
31 | ~0.166 nM | CNC[C@@H]1COc2ccc(S(=O)(=O)c3ccccc3)cc2O1 [(7-Benzenesulfonyl-2,3-dihydro-benzo[1,4]dioxin-2-(R)-ylmethyl)-methyl-amine]

— patent US7368567B2, “Arylsulfonyl benzodioxanes, benzoxazines and benzothiazines as 5-HT6 antagonists” (Roche Palo Alto LLC, priority 2004, dated 2008)
